# Data published in US20180255776A1, “HERBICIDAL COMPOSITIONS CONTAINING 4-AMINO-3-CHLORO-6-(4-CHLORO-2-FLUORO-3-METHOXYPHENYL) PYRIDINE-2-CARBOXYLIC ACID OR A DERIVATIVE THEREOF, A TRIAZOLOPYRIMIDINE SULFONAMIDE HERBICIDE OR A DERIVATIVE THEREOF, AND GLYPHOSATE OR A DERIVATIVE THEREOF” (DOW AGROSCIENCES LLC, priority 2015, published 2018).
# Structures can show the parent of a compound that is named as a salt.
# What was measured:
# Assay in all cases: Post-emergence field trial, visual % weed control
# Assay type in all cases: in vivo
# [1] = system: Commelina benghalensis (hairy wandering Jew, COMBE); details: 35DAA, Glyphosate DMA salt 960 g ai/ha
# Protocol: (§1) Treatments consisted of the methyl ester of 4-amino-3-chloro-6-(4-chloro-2-fluoro-3-methoxyphenyl)pyridine-2-carboxylic acid (Cmpd 1) and diclosulam in combination as GF-3220. […] Glyphosate dimethylammonium salt was applied as various commercial formulations containing 480 grams acid equivalent per liter (g ae/L).
# (§2) Field trials were conducted under standard field conditions. Plot sizes varied from 3-4 meters (m) wide by 5-10 m long. Treatments were applied with small plot backpack sprayers, using pressurized carbon dioxide (CO2) as propellant. Pressure varied from 30-50 pounds per square inch (PSI), with spray tips typically of a Flat Fan type applying water diluent at 100-150 liters per hectare (L/ha). Boom sizes varied from 3-4 m in width. Weed sizes varied, but all treatments were applied as post-emergence treatments to weeds from 2 leaf to 2 tiller growth stages varying from 2-15 inches in height. No additional adjuvant was mixed with the treatments applied in the field.
# (§3) The weed spectrum included, but was not limited to, Commelina benghalensis (hairy wandering Jew, COMBE), Echinochloa crus-galli (barnyardgrass, ECHCG), Euphorbia heterophylla (wild poinsettia, EPHHL), Conyza bonariensis (hairy fleabane, ERIBO), Conyza canadensis (horseweed, ERICA), Conyza sumatrensis (Guernsey fleabane, ERISU) and Ipomoea grandifolia (Corda-de-viola, IAQGR).
# (§4) The values reported are percent (%) control visually rated. The predicted percent (%) weed control was determined using Colby's equation.
# [2] = system: Euphorbia heterophylla (wild poinsettia, EPHHL); details: 35DAA, Glyphosate DMA salt 960 g ai/ha
# Protocol: as §1, §2, §3, §4
# [3] = system: Ipomoea grandifolia (Corda-de-viola, IAQGR); details: Glyphosate DMA salt 960 g ai/ha
# Protocol: as §1, §2, §3, §4
# [4] = system: Conyza bonariensis (hairy fleabane, ERIBO); details: Glyphosate DMA salt 960 g ai/ha
# Protocol: as §1, §2, §3, §4
# [5] = system: Conyza canadensis (horseweed, ERICA); details: Glyphosate DMA salt 1200 g ai/ha
# Protocol: as §1, §2, §3, §4
# [6] = system: Conyza sumatrensis (Guernsey fleabane, ERISU); details: Glyphosate DMA salt 1200 g ai/ha
# Protocol: as §1, §2, §3, §4
smiles,measurement,setting,value
"O=C(O)CNCP(=O)(O)O [Glyphosate DMA salt, Glyphosate dimethylammonium salt]",Mean % weed control,[1],62.0%
same,Mean % weed control,[2],7.5%
same,Mean % weed control,[3]; 14DAA,40.0%
same,Mean % weed control,[3]; 28DAA,45.0%
same,Mean % weed control,[4]; 9DAA,10.0%
same,Mean % weed control,[4]; 14DAA,40.0%
same,Mean % weed control,[4]; 35DAA,25.0%
same,Mean % weed control,[4]; 67DAA,20.0%
same,Mean % weed control,[5]; 46DAA,25.0%
same,Mean % weed control,[5]; 62DAA,20.0%
same,Mean % weed control,[6]; 19DAA,19.0%
same,Mean % weed control,[6]; 29DAA,17.0%
